These are literature values, as cited in patent US20090318627A1, “SOLID PHASE SYNTHESIS OF ACRIDINIUM DERIVATIVES” (Siemens Healthcare Diagnostics Inc., priority 2006, published 2009).

The conditions of the data set: hydrolysis of ester linkage between acridinium ring and phenol.

For `Cc1cc(C(=O)ON2C(=O)CCC2=O)cc(C)c1OC(=O)c1c2ccccc2[n+](C)c2ccccc12` [DMAE-NHS, 2′,6′-dimethyl-4′-(N-succinimidyloxycarbonyl)phenyl-10-methylacridinium-9-carboxylate], the “hydrolytic stability of the acridinium ester linkage, in words” value is “significantly more resistant to hydrolysis”.
As to “9-carboxyphenyl-N-methylacridinium bromide”, the “hydrolytic stability of the acridinium ester linkage, in words” value was “quite unstable”.
